Experiment [1] concerns the target T1, rEAAT2 (Rattus norvegicus, UniProt P31596).
T1 construct: expressed in transfected cells; host or cells: HEK293 (ATCC CRL-11268), transient transfection
The experiment is described as follows: Electrophysiology: SLC1 specificity, anion current in transfected HEK293 cells. It counts as cell-based. As to conditions: 0 mV, 10 mM glutamate and 130 mM NaSCN internal, No current = no outward current up to highest concentration tested (§ 20-50, || 100-400, # 1500-2500 µM); for Ki: read-out: Binding affinity Ki. Here is the method:
(§1) We also tested the specificity of Lc-BPE for ASCT2 over other SLC1 family members (ASCT1, EAAT1-3, and EAAT5).
(§2) Fig. S3. SLC-1 specificity of Lc-BPE. (A) Electrophysiological current responses to the application of 100 µM glutamate (red trace) or varying concentrations of Lc-BPE (black, blue and red traces) to rEAAT1-expressing cells HEK293 cells. (B-C) Dose response curves obtained from currents recorded a fter application of Lc-BPE extracellularly to cells transiently expressing hASCT2, rASCT2, hASCT1 (panel B) and rEAAT1, rEAAT2, rEAAT3 and hEAAT5 (panel C) respectively. For hASCT2, rASCT2 and hASCT1, intracellular pipette solution contained 10 mM alanine and 130 mM NaSCN. For rEAAT1, rEAAT2, rEAAT3 and hEAAT5, intracellular solution contained 10 mM glutamate and 130 mM NaSCN. Extracellular solution was the same for all the experiments (140 mM NaCl). The voltage was 0 mV. […]
(§3) Cell culture and transfection
(§4) Human embryonic kidney 293 (HEK293, ATCC CRL -11268) cells were cultured in DMEM media supplemented with 10% (v/v) fetal bovine serum (FBS), 2 mM glutamine, 1% penicillin streptomycin solution, 1 mM sodium pyruvate and non -essential amino acids. Cells were maintained at 370C in a fully humidified atmosphere containing 5% CO2. rASCT2, hASCT2, hASCT1, EAAT1, EAAT2, EAAT3, EAAT5 and YFP complementary DNAs were each used to transiently transfect HEK293 using POLYPLUS Jet-prime transfection reagent. Cells were analyzed using electrophysiological techniques 24-40 hours after transfection.
(§5) Electrophysiological techniques
(§6) Electrophysiological experiments were performed as described previously 1,2. Stock solutions of inhibitor was prepared in dimethyl sulfoxide (DMSO) up to 100 mM.
(§7) Dilutions to working concentrations were made using external buffer. The highest […]
(§8) cells. For rASCT2, hASCT2 and hASCT1, external buffer contained 140 mM NaCl, 2 mM MgCl2, 2 mM CaCl2, and 10 mM HEPES, pH 7.40 while internal pipette solution comprised of 130 mM NaSCN, 2 mM MgCl2, 10 mM EGTA, 10 mM HEPES and 10mM alanine, pH 7.40. For specificity experiments with EAAT1, EAAT2, EAAC1 and EAAT5, internal solution contained 10 mM glutamate instead of alanine. Compounds were applied to HEK293 cells expressing DNA of interest suspended from a current recording electrode in whole cell configuration44 through a rapid solution exchange device described previously45. Cells are immersed in external buffer bath used to dissolve the inhibitors. The open pipette resistance was between 3 and 6 MΩ. Series resistance was not compensated in these experiments due to relatively small currents. Current s traces were recorded using an Adams and List EPC7 amplifier and digitized using a Molecular Devices Digidata A/D converter.
(§9) Data analysis was performed as described previously 46. Linear and nonlinear curve fitting of the experimental data were analyzed using MicroCal Origin software. Linear plots were fitted using the general equation (y = a + bx) obtaining adjusted R 2 and Pearson’s r values. Nonlinear dose–response relationships were fitted with a Michaelis – Menten-like equation to obtain apparent Ki values in the absence of substrate. For competition studies, equation I = I1 + I2 [Inh]/(Ki + [Inh]) was used for fitting, where I1 is the alanine induced current without the inhibitor, and I2 is the maximum current in the presence of saturating inhibitor concentration, [Inh]max 1,2. At least five experiments were performed for each compound. Unless stated otherwise, the error bars in all our graphs represent mean ± SD .
(§10) ASCT2 expression and purification
(§11) Human ASCT2 (hASCT2) was produced in Pichia pastoris X-33 strain (Invitrogen) in fermentor26 and purified using DDM and CHS (Anatrace) and 1 mM L-glutamine (Merck) to maintain protein stability 27. Membranes representing ~1.5 g cells were solubilized in buffer A (25 mM Tris-HCl, pH 7.4, 300 mM NaCl, 10% (vol/vol) glycerol, 1 mM L - glutamine, 1% DDM and 0.1% CHS) for 1 h at 4 °C; ultracentrifuged (30 min, 442,907 × […]

Experiment [2] has as its target T2, hASCT1 (Homo sapiens, UniProt P43007).
T2 construct: expressed in transfected cells; host or cells: HEK293 (ATCC CRL-11268), transient transfection
T2 sequence (P43007 1-532): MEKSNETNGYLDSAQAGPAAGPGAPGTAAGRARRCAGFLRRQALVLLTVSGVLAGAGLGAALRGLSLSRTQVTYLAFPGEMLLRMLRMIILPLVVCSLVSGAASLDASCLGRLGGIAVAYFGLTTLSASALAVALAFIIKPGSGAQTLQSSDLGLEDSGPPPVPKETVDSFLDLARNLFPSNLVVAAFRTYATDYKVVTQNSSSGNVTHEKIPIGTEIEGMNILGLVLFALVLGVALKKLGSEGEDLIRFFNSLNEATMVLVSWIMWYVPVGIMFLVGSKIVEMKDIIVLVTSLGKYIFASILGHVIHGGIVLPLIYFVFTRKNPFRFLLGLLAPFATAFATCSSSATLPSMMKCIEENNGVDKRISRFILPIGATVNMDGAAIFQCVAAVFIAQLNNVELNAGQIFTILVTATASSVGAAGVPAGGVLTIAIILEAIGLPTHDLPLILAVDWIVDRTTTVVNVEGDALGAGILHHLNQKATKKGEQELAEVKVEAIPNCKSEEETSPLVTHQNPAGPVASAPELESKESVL
The experiment is described as above. The class given is cell-based. As to conditions: for Ki: read-out: Binding affinity Ki. On the procedure: as §1, §2, §3, §4, §5, §6, §7, §8, §9, §10, §11

Setting [3] is: HEK293 cells, 0 mV, 10 mM alanine and 130 mM NaSCN internal, No current = no outward current up to highest concentration tested (§ 20-50, || 100-400, # 1500-2500 µM).

Molecules are shown by their SMILES. “Also recorded” adds a separate entry of the source.

Results on 14 compounds are retold here after PMC8449414, “Rational design of ASCT2 inhibitors using an integrated experimental-computational approach” (Proceedings of the National Academy of Sciences of the …, 2021).

The Ki is a dissociation constant, usually derived from enzyme kinetics or from competition with a known ligand.

T1 sequence (P31596 whole entry): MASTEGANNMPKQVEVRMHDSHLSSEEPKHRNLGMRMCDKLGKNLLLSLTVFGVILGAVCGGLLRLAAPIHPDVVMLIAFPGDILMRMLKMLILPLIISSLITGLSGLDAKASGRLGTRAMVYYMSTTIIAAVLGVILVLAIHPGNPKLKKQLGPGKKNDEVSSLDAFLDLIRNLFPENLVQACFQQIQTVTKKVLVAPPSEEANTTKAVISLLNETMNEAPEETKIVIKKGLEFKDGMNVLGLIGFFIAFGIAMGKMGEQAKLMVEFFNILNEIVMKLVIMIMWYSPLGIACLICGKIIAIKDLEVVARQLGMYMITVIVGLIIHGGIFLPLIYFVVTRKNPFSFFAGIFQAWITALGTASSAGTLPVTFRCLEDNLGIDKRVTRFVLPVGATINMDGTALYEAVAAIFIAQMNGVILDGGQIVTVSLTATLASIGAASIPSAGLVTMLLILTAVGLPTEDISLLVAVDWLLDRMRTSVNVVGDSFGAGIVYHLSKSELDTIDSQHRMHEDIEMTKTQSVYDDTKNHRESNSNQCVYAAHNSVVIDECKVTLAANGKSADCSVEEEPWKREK

Turning to `O=C(O[C@@H]1CN[C@H](C(=O)O)C1)c1ccc(OCc2ccccc2)cc1` [ERA-31], the “Binding affinity Ki” value in experiment [1] is listed as “No current”. The Ki in experiment [2] (setting [3]) was > 100 µM. Take `O=C(O[C@H]1CN[C@H](C(=O)O)C1)c1ccc(C(=O)c2ccccc2)cc1` [ERA-35]: the “Binding affinity Ki” value in experiment [1] is reported as “No current”. Same read-out and setting: for `O=C(O[C@@H]1CN[C@H](C(=O)O)C1)C(c1ccccc1)c1ccccc1` [ERA-29] the value was “No current”.

Turning to `O=C(O[C@@H]1CN[C@H](C(=O)O)C1)c1ccccc1-c1ccccc1` [ERA-3], the “Binding affinity Ki” value in experiment [1] and in experiment [2] (setting [3]) was “No current” throughout. Consider `O=C(O[C@@H]1CN[C@H](C(=O)O)C1)c1ccc(C(O)c2ccccc2)cc1` (stereo partly shown) [ERA-9], for which the “Binding affinity Ki” value in experiment [1] is “No current; also recorded: No inhibitory activity was detected”. The inhibitory constant (Ki) in experiment [2] (setting [3]) turned out to be 43 ± 13.4 µM. As to `O=C(O[C@@H]1CN[C@H](C(=O)O)C1)c1ccc(-c2ccc(C(F)(F)F)cc2)cc1` [ERA-5], the Ki was 0.97 ± 0.1 µM in experiment [1] and 0.44 ± 0.14 µM in experiment [2] (setting [3]).

Take `N[C@@H](COC(=O)c1ccccc1)C(=O)O` [ERA-25]: the results for the Ki in experiment [1] and in experiment [2] (setting [3]) were 164 ± 47 µM and 170 ± 26.7 µM, respectively. The matching figures for `Cc1ccccc1-c1ccc(C(=O)O[C@@H]2CN[C@H](C(=O)O)C2)cc1` [ERA-6]: 1.3 ± 0.13 µM and 1.33 ± 0.3 µM. The matching figures for `O=C(O[C@@H]1CN[C@H](C(=O)O)C1)c1ccc(Oc2ccccc2)cc1` [ERA-16]: 7.72 ± 1.89 µM and 5.71 ± 0.91 µM. For the compound `N[C@@H](COC(=O)c1cccnc1)C(=O)O` [ERA-28], the “Binding affinity Ki” value in experiment [1] is on record as “No current”. Also, in experiment [2] (setting [3]), the Ki was 549 ± 306 µM. As for `O=C(O[C@@H]1CN[C@H](C(=O)O)C1)c1ccc(-c2ccc(F)cc2)cc1` [ERA-4], the Ki was determined as 1.29 ± 0.31 µM in experiment [1] and 0.9 ± 0.08 µM in experiment [2] (setting [3]). For `O=C(Nc1ccc(C(=O)O[C@@H]2CN[C@H](C(=O)O)C2)cc1)c1ccc(C(F)(F)F)cc1` [ERA-11], the “Binding affinity Ki” value in experiment [1] is reported as “No current”. The Ki in experiment [2] (setting [3]) worked out at 8.51 ± 3.87 µM. `N[C@@H](COC(=O)c1ccc(NC(=O)c2ccccc2)cc1)C(=O)O` [ERA-21]: the inhibitory constant (Ki) in experiment [1] was found to be 11 ± 1.25 µM; in experiment [2] (setting [3]), 11.6 ± 1.75 µM. Turning to `O=C(O[C@@H]1CN[C@H](C(=O)O)C1)c1ccc(-c2ccccc2)cc1` [Lc-BPE, L-cis hydroxyproline biphenyl ester], in experiment [2] (hASCT1 versus rASCT2), the “apparent affinity of hASCT1 lower than that of rASCT2” value was ~3.8 fold.
